Results as given in patent US5153180A, “Fluorinated nucleosides and process for treating retrovirus infections therewith” (priority 1990, dated 1992).

Assays:
[1] = test system: REH acute lymphatic leukemia; assay: Inhibition of proliferation of REH cells; type: cell-based; details: Homo sapiens, dose required to reduce the cell number by 50%, read-out: CD50 (the source's name)
Source text: (§1) Originally FTdR was developed as a cytostatic agent (P. Langen et al., Acta biol. med. Germ. 23, 759, 1969; and U.S. Pat. No. 3,775,397) and, therefore, its cytostatic efficacy has been examined in extensive prior studies. […] Ehrlich-mouse-ascites-carcinoma cells (EMAC) represents an exception to that finding, and this is probably connected to its high capability of phosphorylation of FTdR, which is 10 times higher than in human cells. The fast reversibility of the cytostatic effects on EMAC cells was regarded as a special property of this compound (P. Langen et al., Europ. J. Cancer. 14. 349, 1978). The antiproliferative effect of FTdR and FddUrd, and in comparison thereto of N3 -TdR were tested on human cell lines with regard to a possible use in humans. […] When FTdR is compared to N3 -TdR. The effects are very similar, however somewhat lower in each case for N3 -TdR than for FTdR.
(§2) CD50 : inhibitory dose required to reduce the cell number by 50%

[2] = test system: H9 immortalized T-cells; assay: Inhibition of proliferation of H9 cells; type: cell-based; details: Homo sapiens, T-cell; dose required to reduce the cell number by 50%, H9; read-out: CD50 (the source's name)
Source text: as §1, §2

[3] = test system: HIV; assay: Inhibition of the cytopathic effect of HIV on MT-4 cells; type: cell-based; details: Human immunodeficiency virus 1, MT4, 144 h; MT-4 cells, 6 days of incubation; read-out: 50% antiviral dose (ED50)
Experimental: (§3) Under in vitro conditions immortalized T-lymphocytes can be killed within few days by the cytopathic effect of HIV. […] For this purpose about 20,000 MT-4 cells (Harada et al. Science 229, 563 (1985)) Were infected with HIV (titer: 0.04 m.o.i.) and incubated in the presence or absence of varying concentrations of compounds according to formula I, with 10% fetal calf serum (FCS) in 200 μl RPMI medium. After 6 days of incubation the viable cells were counted that were excluded from trypan blue staining.

[4] = in vitro; details: human, mt-4 cells
Experimental: as §3

[5] = test system: K-37 immortalized T-cells; assay: Inhibition of proliferation of K-37 cells; type: cell-based; details: Homo sapiens, T-cell; dose required to reduce the cell number by 50%, K-37; read-out: CD50 (the source's name)
Source text: as §1, §2

[6] = test system: K-562 acute myeloic leukemia; assay: Inhibition of proliferation of K-562 cells; type: cell-based; details: Homo sapiens, K562; dose required to reduce the cell number by 50%, K-562; read-out: CD50 (the source's name)
Source text: as §1, §2

[7] = biological target: RLV-associated reverse transcriptase; assay: Inhibition of RLV-associated reverse transcriptase; type: biochemical, Rauscher murine leukemia virus
[8] = biological target: T1, cellular DNA polymerase β (Bos taurus, UniProt Q27958); assay: Effect on cellular DNA polymerase β; type: biochemical; details: enzyme purified from calf thymus; read-out: ID50 cellular polymerase β
T1 construct: purified from calf thymus; from tissue; host or cells: calf thymus
Source text: (§4) The strong inhibiting effect of 3'-fluoro-substituted deoxynucleotides against HIV-reverse transcriptase can be utilized therapeutically only if the cellular DNA polymerases, especially the DNA polymerase α which is required for the replication of the cellular DNA, remain substantially unaffected. […] The ID50 values for the DNA polymerase β responsible for cellular DNA repair vary between 1,8-15 μm. Both enzymes cellular DNA polymerase α and β were purified from calf thymus and tested according to the method of E. Matthes et al., Biomed. Biochim. Acta 44. K63 (1985).

[9] = biological target: T2, HIV-associated reverse transcriptase (HIV-RT) (Human immunodeficiency virus type 1 group M subtype B, UniProt P04585); assay: Inhibition of HIV-associated reverse transcriptase (polymerization of artificial templates); type: biochemical
T2 construct: HIV-associated reverse transcriptase (HIV-RT)
Source text: At first the triphosphates of some compounds according to formula I were investigated for their ability to inhibit the polymerization of artificial templates (such as polyAoligodT and polyColigodG) catalyzed by HIV-associated reverse transcriptase (HIV-RT) according to the method described by A. D. Hoffman et al., Virology 147, 326, 1985. […] FdTTP, FdUTP and FdGTP are among the strongest inhibitors found so far for HIV-RT. In comparison the ID50 for 3'-azidothymidinetriphosphate was estimated under our conditions to be about […].

[10] = biological target: T3, cellular DNA polymerase α (Bos taurus, UniProt A0AAA9TD94); assay: Effect on cellular DNA polymerase α; type: biochemical; details: enzyme purified from calf thymus; read-out: ID50 cellular polymerase α
T3 construct: purified from calf thymus; from tissue; host or cells: calf thymus
T3 sequence (A0AAA9TD94 1-1441): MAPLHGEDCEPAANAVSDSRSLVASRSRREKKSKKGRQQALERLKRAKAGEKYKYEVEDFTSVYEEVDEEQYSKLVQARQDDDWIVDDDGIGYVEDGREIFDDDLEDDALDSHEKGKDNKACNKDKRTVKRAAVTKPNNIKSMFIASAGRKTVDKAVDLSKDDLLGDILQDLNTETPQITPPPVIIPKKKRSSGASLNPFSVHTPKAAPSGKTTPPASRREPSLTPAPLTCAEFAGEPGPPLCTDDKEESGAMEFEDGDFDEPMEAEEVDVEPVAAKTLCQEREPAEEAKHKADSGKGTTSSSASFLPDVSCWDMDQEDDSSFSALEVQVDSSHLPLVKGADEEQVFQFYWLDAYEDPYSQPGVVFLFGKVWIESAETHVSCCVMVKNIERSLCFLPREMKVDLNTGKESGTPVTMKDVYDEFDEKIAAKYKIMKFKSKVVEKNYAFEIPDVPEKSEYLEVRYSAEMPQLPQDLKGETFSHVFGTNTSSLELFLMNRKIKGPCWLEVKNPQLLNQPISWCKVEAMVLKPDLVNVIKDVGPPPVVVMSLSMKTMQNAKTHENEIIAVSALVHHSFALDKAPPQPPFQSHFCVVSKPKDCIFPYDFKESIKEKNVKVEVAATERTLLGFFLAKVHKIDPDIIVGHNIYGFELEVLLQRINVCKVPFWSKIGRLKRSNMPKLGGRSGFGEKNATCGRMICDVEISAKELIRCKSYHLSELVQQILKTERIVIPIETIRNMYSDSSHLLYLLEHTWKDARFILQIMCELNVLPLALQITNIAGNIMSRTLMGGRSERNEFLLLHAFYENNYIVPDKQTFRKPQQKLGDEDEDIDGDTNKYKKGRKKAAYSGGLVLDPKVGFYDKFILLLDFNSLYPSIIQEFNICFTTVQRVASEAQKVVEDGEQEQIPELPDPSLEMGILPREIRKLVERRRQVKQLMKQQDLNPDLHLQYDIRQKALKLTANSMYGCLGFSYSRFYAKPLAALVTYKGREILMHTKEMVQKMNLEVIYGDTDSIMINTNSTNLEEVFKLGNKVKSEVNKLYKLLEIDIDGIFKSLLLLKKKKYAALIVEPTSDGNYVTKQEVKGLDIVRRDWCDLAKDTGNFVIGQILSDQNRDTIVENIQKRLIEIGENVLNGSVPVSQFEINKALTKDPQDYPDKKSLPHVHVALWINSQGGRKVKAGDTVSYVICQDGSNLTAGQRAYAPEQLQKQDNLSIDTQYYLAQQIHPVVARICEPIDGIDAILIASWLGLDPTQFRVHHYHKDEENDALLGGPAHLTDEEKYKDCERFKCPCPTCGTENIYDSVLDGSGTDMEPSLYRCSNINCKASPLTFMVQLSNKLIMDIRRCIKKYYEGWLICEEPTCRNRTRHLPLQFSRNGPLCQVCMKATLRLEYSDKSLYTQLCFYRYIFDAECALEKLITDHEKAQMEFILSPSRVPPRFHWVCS
Source text: as §4

EC50 [3] [nM]	SMILES	IC50 [1] [mM]	IC50 [2] [mM]	CC50 at 144 h [4] [µM]	IC50 [5] [mM]	IC50 [6] [mM]	ID50 RLV-associated reverse transcriptase [7] [µM]	RLV-associated RT less sensitive to the inhibitor than HIV-associated RT ([7]; ratio of ID50 values) [times]	IC50 [8] [nM]	mode of action (type of inhibition) [9]	IC50 ([9]; read-out: ID50 HIV-associated reverse transcriptase) [nM]	IC50 [10] [µM]
275	O=c1ccn([C@H]2C[C@H](F)[C@@H](CO)O2)c(=O)[nH]1 [FddUrd, 2'-3'-dideoxy-3'-fluorouridine]	> 9	> 2.5	75	> 1	> 1	–	–	–	–	–	–
–	Cc1cn([C@H]2C[C@H](F)[C@@H](COP(=O)(O)OP(=O)(O)OP(=O)(O)O)O2)c(=O)[nH]c1=O [FdTTP, 2'-3'-dideoxy-3'-fluorothymidine-5'-triphosphate]	–	–	–	–	–	0.5	10	2200	competitive type of inhibition	50	> 200
